This is an account of results in patent publication US20050250819A1 (priority 2004, published 2005).

pIC50: −log10 of the molar value.

The subject of this assay is Type III-dependent secretion of ExoU by P. aeruginosa PA103. The assay can be described thus: Tertiary assay: Type III-dependent secretion of ExoU by P. aeruginosa PA103. Type of assay: cell-based. To be noted: Pseudomonas aeruginosa, ExoU secreted into extracellular medium. The source says: Tertiary assay: inhibition of Type III protein secretion of effectors from a Pseudomonas aeruginosa system. Type III protein secretion is used by P. aeruginosa to secrete several essential virulence determinants. One effector of the type III protein secretion system of P. aeruginosa PA103 is the virulence determinants ExoU.
The amount of Type III-dependent secretion of ExoU by P. aeruginosa PA103 can be determined in a cell-based assay by quantification of the 73.9 kDa ExoU protein secreted into the extracellular medium. Such quantitation can be achieved by growing strain PA103 in a deferrated medium in the presence of nitrilotriacetic acid (an inducer of Type III protein secretion in P. aeruginosa) and either in the presence or absence of putative inhibitors. After a prolonged growth period, the cells are sedimented and the supernatants concentrated by ammonium sulfate precipitation. The proteins in the resuspended pellets are separated by electrophoresis on SDS-polyacrylamide gels. After staining gels with Colloidal Blue™, the 73.9 kDa ExoU band is quantitated by scanning through an imager. The effects of inhibitors on the intensity of the ExoU band may be measured relative to that of untreated controls.
`O=C(N[C@H](COCc1ccccc1)C(=O)O)/C(=C\c1ccc(Cl)c(Cl)c1)NC(=O)c1ccc(OC(F)(F)F)cc1` [Compound 30, (R)-3-Benzyloxy-2-[3-(3,4-dichlorophenyl)-2-(4-trifluoromethoxybenzoylamino)-acryloylamino]propionic acid] gave a pIC50 of 4.27. The compound `CC(C)c1ccc(/C=C(/NC(=O)c2ccc(C(F)(F)F)cc2)C(=O)N[C@@H](CSCc2ccccc2)C(=O)O)cc1` [Compound 34, (R)-3-Benzylsulfanyl-2-[3-(4-isopropylphenyl)-2-(4-trifluoromethyl-benzoylamino)acryloylamino]propionic acid] gave a negative logarithm of the IC50 (pIC50) of 4.30. Compound `O=C(N[C@@H](CSCc1ccccc1)C(=O)O)/C(=C\c1ccc2ccccc2c1)NC(=O)c1ccc(C(F)(F)F)cc1` [Compound 35, (R)-3-Benzylsulfanyl-2-[3-naphthalen-2-yl-2-(4-trifluoromethylbenzoylamino)-acryloylamino]propionic acid] gave a pIC50 above 4.90. On to `O=C(N[C@@H](Cc1ccc(Cl)cc1)C(=O)O)/C(=C\c1cccc(C(F)(F)F)c1)NC(=O)c1ccc(-c2ccccc2)cc1` [Compound 38, (S)-2-[2-[(Biphenyl-4-carbonyl)amino]-3-(3-trifluoromethylphenyl)acryloylamino]-3-(4-chlorophenyl)propionic acid], for which the pIC50 is 4.76. `O=C(N[C@H](Cc1ccc(Cl)cc1)C(=O)O)/C(=C\c1cccc(C(F)(F)F)c1)NC(=O)c1ccc(-c2ccccc2)cc1` [Compound 39, (R)-2-[2-[(Biphenyl-4-carbonyl)amino]-3-(3-trifluoromethylphenyl)acryloylamino]-3-(4-chlorophenyl)propionic acid] showed a negative-log IC50 (pIC50) of 4.77. For `O=C(N[C@@H](CSCc1ccccc1)C(=O)O)/C(=C\c1cccc(Oc2ccc(Cl)cc2)c1)NC(=O)c1ccc(C(F)(F)F)cc1` [Compound 40, (R)-3-Benzylsulfanyl-2-[3-[3-(4-chlorophenoxy)phenyl]-2-(4-trifluoromethyl-benzoylamino)acryloylamino]propionic acid], the pIC50 was 4.88. Take `O=C(N[C@@H](CSCc1ccccc1)C(=O)O)/C(=C\c1ccc(Oc2ccccc2)cc1)NC(=O)c1ccc(Cl)cc1` [Compound 44, (R)-3-Benzylsulfanyl-2-[2-(4-chlorobenzoylamino)-3-(4-phenoxyphenyl)-acryloylamino]propionic acid]: the negative logarithm of the IC50 (pIC50) was 4.58. The compound `O=C(N[C@@H](CSCc1ccccc1)C(=O)O)/C(=C\c1cccc(Br)c1)NC(=O)c1ccc(Oc2ccccc2)cc1` [Compound 48, (R)-3-Benzylsulfanyl-2-[3-(3-bromophenyl)-2-(4-phenoxybenzoylamino)-acryloylamino]propionic acid] showed a pIC50 of 4.61.

Compound `O=C(N[C@@H](COCc1ccccc1)C(=O)O)/C(=C\c1ccc(Cl)c(Cl)c1)NC(=O)c1ccc(Oc2ccccc2)cc1` [Compound 49, (S)-3-Benzyloxy-2-[3-(3,4-dichlorophenyl)-2-(4-phenoxybenzoylamino)-acryloylamino]propionic acid] gave a pIC50 of 4.12.

`CN(C(=O)/C(=C\c1cccc(C(F)(F)F)c1)NC(=O)c1ccc(-c2ccccc2)cc1)C(COCc1ccccc1)C(=O)O` (centres unmarked) [Compound 53, 3-Benzyloxy-2-{[2-[(biphenyl-4-carbonyl)amino]-3-(3-trifluoromethylphenyl)-acryloyl]methylamino}propionic acid] gave a negative-log IC50 (pIC50) of 4.34. Compound `O=C(NC(Cc1ccc(F)cc1)C(=O)O)/C(=C\c1ccc(-c2ccccc2)cc1)NC(=O)c1ccc(C(F)(F)F)cc1` (centres unmarked) [Compound 54, 2-[3-Biphenyl-4-yl-2-(4-trifluoromethylbenzoylamino)acryloylamino]-3-(4-fluoro-phenyl)propionic acid] gave a pIC50 of 4.72. The same measure for `O=C(NC(Cc1ccc(Cl)cc1)C(=O)O)/C(=C\c1ccc(-c2ccccc2)cc1)NC(=O)c1ccc(C(F)(F)F)cc1` (centres unmarked) [Compound 55, 2-[3-Biphenyl-4-yl-2-(4-trifluoromethylbenzoylamino)acryloylamino]-3-(4-chloro-phenyl)propionic acid]: 4.89; for `O=C(N[C@H](COCc1ccccc1)C(=O)O)/C(=C\c1ccc(Cl)c(Cl)c1)NC(=O)c1ccc(-c2ccccc2)cc1` [Compound 56, (R)-3-Benzyloxy-2-[2-[(biphenyl-4-carbonyl)amino]-3-(3,4-dichlorophenyl)-acryloylamino]propionic acid]: 4.69. The same measure for `O=C(N[C@@H](CSCc1ccccc1)C(=O)O)/C(=C\c1ccc(Oc2ccc(F)cc2)cc1)NC(=O)c1ccc(C(F)(F)F)cc1` [Compound 57, (R)-3-Benzylsulfanyl-2-[3-[4-(4-fluorophenoxy)phenyl]-2-(4-trifluoromethyl-benzoylamino)acryloylamino]propionic acid]: 4.46; for `O=C(N[C@@H](CSCc1ccccc1)C(=O)O)/C(=C\c1ccc(Oc2ccc(Cl)cc2)cc1)NC(=O)c1ccc(C(F)(F)F)cc1` [Compound 58, (R)-3-Benzylsulfanyl-2-[3-[4-(4-chlorophenoxy)phenyl]-2-(4-trifluoromethyl-benzoylamino)acryloylamino]propionic acid]: 4.31. On to `O=C(O)C[C@@H](CNC(=O)/C(=C\c1cccc(C(F)(F)F)c1)NC(=O)c1ccc(-c2ccccc2)cc1)c1ccc(Cl)cc1` [Compound 62, (R)-4-[2-[(Biphenyl-4-carbonyl)amino]-3-(3-trifluoromethylphenyl)acryloylamino]-3-(4-chlorophenyl)butyric acid], for which the pIC50 is 4.06. Compound `O=C(N[C@@H](CSCc1ccccc1)C(=O)O)/C(=C\c1ccc(Cl)c(Cl)c1)NC(=O)C1CCN(c2nccc(C(F)(F)F)n2)CC1` [Compound 74, (R)-3-Benzylsulfanyl-2-(3-(3,4-dichlorophenyl)-2-{[1-(4-trifluoromethylpyrimidin-2-yl)piperidine-4-carbonyl]amino}acryloylamino)propionic acid] had a negative logarithm of the IC50 (pIC50) of 4.47. With `O=C(N[C@H](COCc1ccccc1)C(=O)O)/C(=C\c1ccc(I)cc1)NC(=O)C1CCN(c2nccc(C(F)(F)F)n2)CC1` [Compound 75, (R)-3-Benzyloxy-2-(3-(4-iodophenyl)-2-{[1-(4-trifluoromethylpyrimidin-2-yl)-piperidine-4-carbonyl]amino}acryloylamino)propionic acid], the negative logarithm of the IC50 (pIC50) was 4.18. For `O=C(N[C@@H](CSCc1ccccc1)C(=O)O)/C(=C\c1ccc(I)cc1)NC(=O)C1CCN(c2nccc(C(F)(F)F)n2)CC1` [Compound 76, (R)-3-Benzylsulfanyl-2-(3-(4-iodophenyl)-2-{[1-(4-trifluoromethylpyrimidin-2-yl)-piperidine-4-carbonyl]amino}acryloylamino)propionic acid] the value was 4.25; for `O=C(N[C@H](COCc1ccccc1)C(=O)O)/C(=C\c1cccc(C(F)(F)F)c1)NC(=O)C1CCN(c2nccc(C(F)(F)F)n2)CC1` [Compound 77, (R)-3-Benzyloxy-2-(3-(3-trifluoromethylphenyl)-2-{[1-(4-trifluoromethylpyrimidin-2-yl)-piperidine-4-carbonyl]amino}acryloylamino)propionic acid], 4.22.

The term pIC50 denotes the IC50 on a negative log10 scale, so that one unit is a factor of ten.
